Measured values: patent publication US9381260B2, “Hypoxia inducible factor-1 pathway inhibitors and uses as anticancer and imaging agents” (EMORY UNIVERSITY, priority 2011, dated 2016)
≈ marks a conversion by molar mass, not a printed value. One block for each molecule: values may come before it.

Columns and labels:
[1] = test system: HIF-1 transcriptional activity; test: HIF-inducible luciferase reporter assay in LN229-V6R cells under hypoxia; format: cell-based, human
Procedure: (§1) Results are plotted as percent of luciferase activity found in extracts of untreated cells used as controls. (A) Luciferase activity in extracts of LN229-V6R cells, which contain a HIF-inducible luciferase reporter gene. The cells were grown under hypoxia to activate HIF. (B) Luciferase activity in extracts of LN229-Lux cells, which contain a constitutively expressed luciferase reporter gene. Results shown are from cells grown under normoxia; similar results were obtained under hypoxia.
(§2) The effects of the 12 heteroarylsulfonamides on HIF transcriptional activity under hypoxia were measured by determining the luciferase activity present in LN229-V6R cells, which contain a stably integrated hypoxia/HIF inducible luciferase reporter gene. As a control for the absence of inhibition on luciferase enzyme per se, we also tested 1 and five heteroarylsulfonamides in LN229-Lux cells that contain a constitutive luciferase reporter gene driven by a retroviral LTR promoter. An Hsp90 inhibitor, 17-DMAG, and 1 were used as positive controls. […] The heteroarylsulfonamides decreased HIF-1 activity in a dose-dependent fashion with IC50 values below (6a, 6b, 6d-6f, 6h, 6i, 6l) or close to 5 μM (6c, 6g, 6j, 6k) (FIG. 2).

[2] = test system: LN229-Lux cells (constitutive luciferase reporter gene); test: Constitutive luciferase reporter control assay in LN229-Lux cells; format: cell-based, human; conditions: control for luciferase inhibition
Procedure: as §1, §2

[3] = log P7.4 by shake flask or HPLC method (OECD guidelines); format: physicochemical; conditions: pH 7.4
Procedure: Experimental determinations of log P7.4, aqueous solubility, and metabolic stability of a selected number of the heteroarylsulfonamides were performed to further characterize the compounds (Table 2 log P7.4 was measured by either the shake flask method (6a, 6g) or the HPLC method (1, 6b-6f, 6h-6l) according to OECD guidelines. Most compounds followed the trends predicted by in silico calculations, and the measured values were smaller than the predicted values by 1.0-1.5. When a methoxy group or hydroxyl group is placed at the C-8 position of the chromene ring instead of a hydrogen, as in 6g, 6h, and 6l, the log P7.4 value decreased by more than 2 from the predicted values to result in 1.2-1.3. The presence of a 2-methylpropan-2-yl group in region 2 conferred high log P7.4 values, and heteroarylsulfonyl groups in region 1 also affected log P7.4 values, as shown for 6c, 6i, 6j, and 6k.

[4] = Metabolic stability in homogenates of mouse liver; format: in vitro ADME; conditions: homogenates of mouse liver in PBS 1:2 (w/v), ex vivo; for half-life: mouse, mouse liver homogenate, read-out: half-life (hepatic metabolic stability) (converted)
Procedure: Metabolic stabilities of 1, 6a, 6d, 6g, and 6l were measured in mouse plasma and homogenates of mouse liver in PBS [1:2 (w/v)].

[5] = Aqueous solubility by HPLC-UV on filtered saturated suspensions; format: physicochemical; conditions: for aqueous solubility (n = 3) / solubility: HPLC-UV, saturated aqueous suspension, PTFE filter 0.2 μm; for aqueous solubility relative to 1: fold more soluble than compound 1; for solubility: water, thermodynamic from solid, read-out: aqueous solubility (n = 3)
Description: Aqueous solubilities of 1, 6a, 6d, and 6g were quantified by HPLC coupled with a UV detector on saturated aqueous suspensions after filtration with a polytetrafluoroethylene (PTFE) filter (pore size 0.2 μm). 6a and 6d were chosen due to their strong activity in the HRE-reporter assay, and 6g was picked to evaluate the influence of the methoxy group attached to the C-8 position of the chromene ring. Aqueous solubilities of 6a, 6d, and 6g are, respectively, 100, 20, and 9000 times better than that of 1, which are consistent with the log Sw predictions for 6a and 6d. The substitution of hydrogen with a methoxy group at the C-8 position of the chromene ring increased the aqueous solubility by 90 times (compare 6a and 6g).

[6] = test system: HFF-1 immortalized human fibroblasts; test: Clonogenicity assay HFF-1; format: cell-based; conditions: HFF-1, 336 h, 14 days
Description: (§3) To determine whether 6a, 6g, and 6l altered tumor cell growth in culture, we performed sulforhodamine B (SRB) assays in LN229-V6R glioma cells in 3 days, and to further examine the cell growth inhibitory activity of 6a, 6g, and 61 in an independent biological assay, we performed clonogenicity assays in LN229 human glioblastoma cells and HFF-1 immortalized human fibroblasts, over a period of 14 days.

[7] = test system: LN229 human glioblastoma cells; test: Clonogenicity assay LN229; format: cell-based; conditions: LN-229, 336 h, 14 days
Description: as §3

HIF-1α = HIF-1α protein levels by Western blot in LN229-V6R cells under hypoxia; format: cell-based, human; conditions: 24 h; for effect on HIF-1α protein levels: 3-100 μM
Procedure: HIF-1 is a heterodimer of HIF-1α and HIF-1β subunits, which then associates with p300 or CBP cofactors to form an active transcriptional complex. […] To determine whether the heteroarylsulfonamides retain this property, we determined the levels of HIF-1α protein under hypoxia in LN229-V6R cells. […] We investigated if the levels of HIF-1α protein would correlate with transcriptional inhibition of the HRE reporter by the compounds. LN229-V6R cells were treated with the compounds at concentrations of 3, 6, 12, 25, 50, and 100 μM under hypoxia for 24 h, and then HIF-1α protein levels in the cell extracts were examined by Western blotting. […] 6g and 61 decreased HIF-1a levels in a dose-dependent fashion starting from 12 and 25 μM, respectively (FIG. 3). […] The reduction in HIF-1α levels afforded by all three compounds at 100 μM may reflect nonspecific cytotoxicity.

[8] = Aqueous solubility by laser nephelometry at pH 3.0, 5.0, 7.4; format: physicochemical; conditions: pH 5.0 and pH 3.0 versus pH 7.4

SMILES: CO[C@H]1/C=C\C=C(/C)C(=O)NC2=CC(=O)C(NCCN(C)C)=C(C[C@@H](C)C[C@H](OC)[C@H](O)[C@@H](C)/C=C(\C)[C@@H]1OC(N)=O)C2=O [17-DMAG, reference compound]
effect on luciferase activity in LN229-V6R cells [1]: inhibited | effect on luciferase activity in LN229-Lux cells [2]: inhibited

log P7.4 [3]: 4.4
SMILES: CC(C)CN(Cc1ccc2c(c1)C=CC(C)(C)O2)S(=O)(=O)c1nccs1 [Compound 6k, N-[(2,2-Dimethyl-2H-chromen-6-yl)methyl]-N-(2-methylpropyl)-1,3-thiazole-2-sulfonamide]

IC50 ([1]; Homo sapiens, LN229-V6R cells): < 5 µM | log P7.4 [3]: 3.6
SMILES: CC(C)CN(Cc1ccc2c(c1)C=CC(C)(C)O2)S(=O)(=O)c1ccncc1 [Compound 6i, N-[(2,2-Dimethyl-2H-chromen-6-yl)methyl]-N-(2-methylpropyl)pyridine-4-sulfonamide]

log P7.4 [3]: 3.1
SMILES: CC(C)CN(Cc1ccc2c(c1)C=CC(C)(C)O2)S(=O)(=O)c1nccn1C [Compound 6j, N-[(2,2-Dimethyl-2H-chromen-6-yl)methyl]-N-(2-methylpropyl)-1-methyl-1H-imidazole-2-sulfonamide]

half-life (hepatic metabolic stability) [4]: 13 h | half-life [4]: 13 to 20 h | aqueous solubility (n = 3) [5]: 0.2 ± 0.07 µM (≈ 0.0769 µg/mL) | aqueous solubility relative to 1 [5]: 20 times | solubility [5]: 0.1 µg/mL (≈ 0.26 µM) | log P7.4 [3]: 3.1
SMILES: CC1(C)C=Cc2cc(CN(CC3CC3)S(=O)(=O)c3ccccn3)ccc2O1 [Compound 6d, N-(Cyclopropylmethyl)-N-[(2,2-dimethyl-2H-chromen-6-yl)methyl]pyridine-2-sulfonamide]

log P7.4 [3]: 3.0
SMILES: CC1(C)C=Cc2cc(CN(C3CCC3)S(=O)(=O)c3ccccn3)ccc2O1 [Compound 6e, N-(Cyclobutyl)-N-[(2,2-dimethyl-2H-chromen-6-yl)methyl]pyridine-2-sulfonamide]

log P7.4 [3]: 4.1
SMILES: CC(C)CN(Cc1ccc2c(c1)C=CC(C)(C)O2)S(=O)(=O)c1ccccn1 [Compound 6c, N-[(2,2-Dimethyl-2H-chromen-6-yl)methyl]-N-(2-methylpropyl)pyridine-2-sulfonamide]

half-life (hepatic metabolic stability) [4]: 15 h | half-life [4]: 13 to 20 h | aqueous solubility relative to 1 [5]: 9000 times | IC50 ([7]; LN229, hypoxia): > 100 µM | IC50 ([7]; LN229, normoxia): 69 µM
SMILES: COc1cc(CN(C(C)C)S(=O)(=O)c2ccccn2)cc2c1OC(C)(C)C=C2 [Compound 6g]
IC50 ([6]; HFF-1, hypoxia): > 100 µM | IC50 ([6]; HFF-1, normoxia): 55 µM | concentration from which HIF-1α levels decreased dose-dependently (HIF-1α): 12 µM

SMILES: COc1ccc(S(=O)(=O)N(Cc2ccc3c(c2)C=CC(C)(C)O3)c2ccccc2)cc1OC [Compound 1, 3,4-Dimethoxy-N-[(2,2-dimethyl-2H-chromene-6-yl)methyl]-N-phenylbenzenesulfonamide, reference compound]
half-life [4]: 11 h | aqueous solubility (n = 3) [5]: 0.009 µM (≈ 0.00419 µg/mL) | solubility [5]: 0.003 µg/mL (≈ 0.00644 µM) | activity at 2.5 µM ([1]; Homo sapiens, 2.5 μM, LN229-V6R cells, read-out: remaining HIF-1 activity at 2.5 μM, % of control): 18% | effect on luciferase activity in LN229-Lux cells [2]: reduced luciferase activity only in LN229-V6R cells | log P7.4 [3]: 3.7 | effect of low pH on aqueous solubility [8]: pH did not affect aqueous solubility | effect on HIF-1α protein levels (HIF-1α): does not antagonize hypoxia-induced HIF-1α expression

half-life (hepatic metabolic stability) [4]: 20 h | half-life [4]: 13 to 20 h | aqueous solubility (n = 3) [5]: 1 ± 0.1 µM (≈ 0.372 µg/mL) | aqueous solubility relative to 1 [5]: 100 times | solubility [5]: 0.3 µg/mL (≈ 0.805 µM) | IC50 ([1]; Homo sapiens, LN229-V6R cells): < 5 µM | IC50 ([7]; LN229, hypoxia): 134 µM | IC50 ([7]; LN229, normoxia): 82 µM | log P7.4 [3]: 2.0 | effect of low pH on aqueous solubility [8]: 50-60 times
SMILES: CC(C)N(Cc1ccc2c(c1)C=CC(C)(C)O2)S(=O)(=O)c1ccccn1 [Compound 6a, N-[(2,2-Dimethyl-2H-chromen-6-yl)methyl]-N-(propan-2-yl)pyridine-2-sulfonamide]
inhibition of HIF-1 transcriptional activity (HRE-reporter) at 10 μM ([1]; 10 μM, LN229-V6R cells, 1 day): inhibited completely | IC50 ([6]; HFF-1, hypoxia): 93 µM | IC50 ([6]; HFF-1, normoxia): 62 µM | effect on HIF-1α protein levels (HIF-1α): no effect on HIF-1α levels at all concentrations tested, except for a slight reduction at the highest concentration (100 μM)

log P7.4 [3]: 3.8
SMILES: CC1(C)C=Cc2cc(CN(C3CCCC3)S(=O)(=O)c3ccccn3)ccc2O1 [Compound 6f, N-(Cyclopentyl)-N-[(2,2-dimethyl-2H-chromen-6-yl)methyl]pyridine-2-sulfonamide]

IC50 ([1]; Homo sapiens, LN229-V6R cells): < 5 µM | log P7.4 [3]: 3.0
SMILES: CC1(C)C=Cc2cc(CN(C3CC3)S(=O)(=O)c3ccccn3)ccc2O1 [Compound 6b, N-Cyclopropyl-N-[(2,2-dimethyl-2H-chromen-6-yl)methyl]pyridine-2-sulfonamide]
